In patent publication US6310095A, “Inhibitors of protein isoprenyl transferases” (University of Pittsburgh, priority 1998, dated 2001):
Where a name gives a salt, the structure may show the parent alone. Read-outs that look alike come from different tables or passages of the source. One block for each compound: values may come before it.

Biological target: T1, protein farnesyltransferase (Rattus norvegicus, UniProt Q02293+Q04631)
T1 construct: Rat brain protein farnesyltransferase activity is measured; from tissue; host or cells: rat brain; purified according to Reiss et al., Cell 62:81-88 (1990), steps one through three
Experiment: in vitro inhibition of protein farnesyltransferase (scintillation proximity assay, biotin-K Ras B fragment)
Type: biochemical
Details: for inhibition at 1 µM / inhibition at 0.1 µM / inhibition at 0.01 µM: read-out: % inhibition of farnesyltransferase; for inhibition at 10 µM: at 1 × 10^-5 M
In short: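 Rat brain enzyme, purified through three steps, in a scintillation proximity assay kit with biotin-K Ras B fragment substrate at 0.1 mM final. Value is % inhibition of farnesylation.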

Compound: CSCC[C@H](NC(=O)c1ccc(COCc2ccc(-c3cccc(F)c3)o2)cc1-c1ccccc1C)C(=O)[O-].[Li+] [Example 436]
- % inhibition of farnesyltransferase (at 1 × 10^-7 M): 89%

Compound: COc1ccc(CCOCc2ccc(C(=O)N[C@@H](CCSC)C(=O)O)c(-c3ccccc3C)c2)cc1 [Example 937]
- % inhibition of farnesyltransferase (at 1 × 10^-6 M): 95%

Compound: CCn1cc(NCc2ccc(C(=O)N[C@@H](CCSC)C(=O)O)c(-c3ccccc3)c2)c(=O)n1CC [Example 364]
- inhibition at 10 µM: 69%

Compound: CSCC[C@H](NC(=O)c1ccc(COCCCc2ccccc2)cc1-c1ccccc1C)C(=O)[O-].[Li+] [Example 595]
- % inhibition of farnesyltransferase (at 1 × 10^-6 M): 97%

Compound: CSCC[C@H](NC(=O)c1ccc(COCc2cnc(-c3ccc(Cl)cc3)o2)cc1-c1ccccc1C)C(=O)[O-].[Li+] [Example 894]
- % inhibition of farnesyltransferase (at 1 × 10^-7 M): 89%

Compound: CSCC[C@H](NC(=O)c1ccc(COCc2cccc3ccccc23)cc1-c1ccccc1C)C(=O)[O-].[Li+] [Example 584]
- % inhibition of farnesyltransferase (at 1 × 10^-7 M): 96%

Compound: CSCC[C@H](NC(=O)c1ccc(S(=O)(=O)NCCC2CCCCC2)cc1-c1ccccc1C)C(=O)O [Example 772]
- % inhibition of farnesyltransferase (at 1 × 10^-6 M): 79%

Compound: CSCC[C@H](NC(=O)c1ccc(/C=C/c2ccc(Oc3cccc(Cl)c3)cc2)cc1-c1ccccc1C)C(=O)O [Example 858]
- % inhibition of farnesyltransferase (at 1 × 10^-8 M): 60%

Compound: CSCC[C@H](NC(=O)c1ccc(CCc2cccc(-c3ccccc3)c2)cc1-c1ccccc1C)C(=O)[O-].[Li+] [Example 793]
- % inhibition of farnesyltransferase (at 1 × 10^-6 M): 94%

Compound: CSCC[C@H](NC(=O)c1ccc(CN(CC(c2ccccc2)c2ccccc2)c2ccccc2)cc1-c1ccccc1C)C(=O)O [Example 509]
- inhibition at 1 µM (at 1 × 10^-6 M): 77%

Compound: CSCC[C@H](NC(=O)c1ccc(NC[C@H]2NCC[C@H]2S)cc1-c1ccccc1)C(=O)O [Example 960, N-[4-((2S,4R)-4-thiolpyrrolidin-2-ylmethylamino)-2-phenylbenzoyl]methionine]
- inhibition at 0.01 µM (at 1 × 10^-8 M): > 50%

Compound: CSCC[C@H](NC(=O)c1ccc(CN(Cc2ccccc2)c2cnccn2)cc1-c1ccccc1C)C(=O)O [Example 517, N-[4-N-benzyl-N-pyrazin-2-ylaminomethyl-2-(2-methylphenyl)benzoyl]methionine lithium salt]
- inhibition at 0.01 µM (at 1 × 10^-8 M): 92%

Compound: CSCC[C@H](NC(=O)c1ccc(COCc2ccc(C(C)C)cc2)cc1-c1ccccc1C)C(=O)[O-].[Li+] [Example 940]
- % inhibition of farnesyltransferase (at 1 × 10^-7 M): 92%

Compound: CSCC[C@H](NC(=O)c1ccc(CN(Cc2ccccc2)c2ccc(SC)cc2)cc1-c1ccccc1C)C(=O)O [Example 852, N-[4-(N-benzyl-N-(4-methylthiophenyl)aminomethyl)-2-(2-methylphenyl)benzoyl]methionine lithium salt]
- inhibition at 0.01 µM: 79%

Compound: CSCC[C@H](NC(=O)c1ccc(COCCC2CCCCC2)cc1-c1ccccc1C)C(=O)[O-].[Li+] [Example 594]
- % inhibition of farnesyltransferase (at 1 × 10^-7 M): 95%

Further lines, results first:

- % inhibition of farnesyltransferase (at 1 × 10^-6 M): 98%
Compound: CSCC[C@H](NC(=O)c1ccc(CN(C(C)C)C2(Cc3ccccc3)CCC2)cc1-c1ccccc1C)C(=O)O [Example 331]

- inhibition at 1 µM (at 1 × 10^-6 M): 95%
Compound: CSCC[C@H](NC(=O)c1ccc(CNc2ccc(N3CCCCC3)cc2)cc1-c1ccccc1C)C(=O)O [Example 862, N-[4-N-(4-piperidin-1-ylphenyl)aminomethyl-2-(2-methylphenyl)benzoyl]methionine]

- inhibition at 0.1 µM (at 1 × 10^-7 M): 63%
Compound: COc1ccccc1N(Cc1ccccc1)Cc1ccc(C(=O)N[C@@H](CCSC)C(=O)O)c(-c2ccccc2C)c1 [Example 839, N-[4-(N-benzyl-N-(2-methoxyphenyl)aniinomethyl)-2-(2-methylphenyl)benzoyl]methionine lithium salt]

- inhibition at 10 µM: 69%
Compound: CSCC[C@H](NC(=O)c1ccc(CNc2cc(C)on2)cc1-c1ccccc1)C(=O)O [Example 372]

- inhibition at 0.1 µM (at 1 × 10^-7 M): 57%
Compound: CCSC[C@H](CC1CCCCC1)N(Cc1ccc(C(=O)N[C@@H](CCSC)C(=O)O)c(-c2ccccc2C)c1)C(=O)c1ccccc1 [Example 949, N-[4-N-Benzoyl-N-(3-Cyclohexyl-1-ethylthiopropan-2-yl)aminomethyl-2-(2-methylphenyl)-benzoyl]methionine]

- inhibition at 1 µM (at 1 × 10^-6 M): 97%
Compound: CSCC[C@H](NC(=O)c1ccc(CN[C@H](C)CC2CCCCC2)cc1-c1ccccc1C)C(=O)O [Example 613, N-[4-(3-cyclohexylpropan-2-ylaminomethyl)-2-(2-methylphenyl)benzoyl]methionine]

- inhibition at 1 µM (at 1 × 10^-6 M): 35%
Compound: COc1ccc(CNCc2ccc(C(=O)N[C@@H](CCSC)C(=O)O)c(-c3ccccc3)c2)c(OC)c1 [Example 655]

- % inhibition of farnesyltransferase (at 1 × 10^-7 M): 93%
Compound: CSCC[C@H](NC(=O)c1ccc(COCC2CCC(c3ccc(Cl)cc3)O2)cc1-c1ccccc1C)C(=O)O (some centres unmarked) [Example 822]

- % inhibition of farnesyltransferase (at 1 × 10^-7 M): 84%
Compound: CSCC[C@H](NC(=O)c1ccc(CN2CCCC(OCC3CCCCC3)C2)cc1-c1ccccc1C)C(=O)O (some centres unmarked) [Example 990]

- inhibition at 1 µM (at 1 × 10^-6 M): 41%
Compound: COc1cccc(CNCc2ccc(C(=O)N[C@@H](CCSC)C(=O)O)c(-c3ccccc3)c2)c1 [Example 652]

- inhibition at 1 µM (at 1 × 10^-6 M): 55%
Compound: CSCC[C@H](NC(=O)c1ccc(CN(Cc2ccccc2)Cc2ccccc2)cc1-c1ccccc1)C(=O)O [Example 834, N-[4-N,N-dibenzylaminomethyl-2-phenylbenzoyl]methionine lithium salt]

- inhibition at 0.01 µM (at 1 × 10^-8 M): 92%
Compound: CSCC[C@H](NC(=O)c1ccc(CN(CCC2CCCCC2)C(=O)OC(C)(C)C)cc1-c1ccccc1C)C(=O)O [Example 763, N-[4-N-t-Butyloxycarbonyl-N-2-cyclohexylethylaminomethyl-2-(2-methylphenyl)benzoyl]methionine lithium salt]

- inhibition at 1 µM (at 1 × 10^-6 M): 40%
Compound: CSCC[C@H](NC(=O)c1ccc(NC(=O)Cc2ccccc2)cc1-c1ccccc1C)C(=O)O [Example 540, N-[4-N-phenylacetylamino-2-(2-methylphenyl)benzoyl]methionine lithium salt]

- % inhibition of farnesyltransferase (at 1 × 10^-8 M): 94%
Compound: CSCC[C@H](NC(=O)c1ccc(CO[C@H](CSc2ccccc2)CC2CCCCC2)cc1-c1ccccc1C)C(=O)O [Example 884]

- inhibition at 1 µM (at 1 × 10^-6 M): 85%
Compound: CSCC[C@H](NC(=O)c1ccc(CN(Cc2ccccc2)c2ccccc2Cl)cc1-c1ccccc1C)C(=O)O [Example 846, N-[4-N-(N-benzyl-N-(2-chlorophenyl)aminomethyl)-2-(2-methylphenyl)benzoyl]methionine lithium salt]

- inhibition at 1 µM (at 1 × 10^-6 M): 72%
Compound: CSCC[C@H](NC(=O)c1ccc(CN(CCO)Cc2ccccc2)cc1-c1ccccc1)C(=O)O [Example 515, N-[4-N-(2-hydroxyethyl)-N-benzylaminomethyl-2-phenylbenzoyl]methionine lithium salt]

- inhibition at 1 µM (at 1 × 10^-6 M): 95%
Compound: CSCC[C@H](NC(=O)c1ccc(NC(=O)c2cnccc2C(F)(F)F)cc1-c1ccccc1C)C(=O)O [Example 481, N-[4-N-(4-trifluoromethylnicotinoyl)amino-2-(2-methylphenyl)benzoyl]methionine lithium salt]

- inhibition at 1 µM (at 1 × 10^-6 M): 65%
Compound: CSCC[C@H](NC(=O)c1ccc(CN(C(CC2CCCCC2)CC2CCCCC2)S(=O)(=O)c2ccccc2)cc1-c1ccccc1C)C(=O)O [Example 911, N-[4-(N-Benzenesulfoyl-N-(1,3-Dicyclohexylpropan-2-yl)aminomethyl)-2-(2-methylphenyl)-benzoyl]methionine]

- % inhibition of farnesyltransferase (at 1 × 10^-6 M): 83%
Compound: CSCC[C@H](NC(=O)c1ccc(S(=O)(=O)NCCCn2ccnc2)cc1-c1ccccc1C)C(=O)O [Example 777]

- inhibition at 1 µM (at 1 × 10^-6 M): 45%
Compound: CSCC[C@H](NC(=O)c1ccc(CNc2ccc(CCO)cc2)cc1-c1ccccc1)C(=O)O [Example 694]
